In patent publication US20230365546A1, “5-SUBSTITUTED INDOLE 3-AMIDE DERIVATIVES, PREPARATION METHOD AND USE THEREOF” (ORIGIANT PHARMACEUTICAL CO., LTD, priority 2020, published 2023):

Tests used:
RIPK1 = RIPK1 (Homo sapiens (Human), UniProt Q13546); experiment: In vitro kinase assay (Eurofins Kinase Profiler), IC50; format: biochemical; conditions: 0.001-10 μM, read-out: RIPK 1 (IC50)
HT-29 cells = experiment: Protection against programmed necrosis of HT-29 cells (TNF α/Smac mimetic/Z-VAD-FMK, CCK8); format: cell-based; conditions: Homo sapiens, TNF α/Smac mimetic/Z-VAD-FMK induced 24 h, CCK8, read-out: HT-29 (EC50)

Chain of RIPK1 (Q13546 whole entry): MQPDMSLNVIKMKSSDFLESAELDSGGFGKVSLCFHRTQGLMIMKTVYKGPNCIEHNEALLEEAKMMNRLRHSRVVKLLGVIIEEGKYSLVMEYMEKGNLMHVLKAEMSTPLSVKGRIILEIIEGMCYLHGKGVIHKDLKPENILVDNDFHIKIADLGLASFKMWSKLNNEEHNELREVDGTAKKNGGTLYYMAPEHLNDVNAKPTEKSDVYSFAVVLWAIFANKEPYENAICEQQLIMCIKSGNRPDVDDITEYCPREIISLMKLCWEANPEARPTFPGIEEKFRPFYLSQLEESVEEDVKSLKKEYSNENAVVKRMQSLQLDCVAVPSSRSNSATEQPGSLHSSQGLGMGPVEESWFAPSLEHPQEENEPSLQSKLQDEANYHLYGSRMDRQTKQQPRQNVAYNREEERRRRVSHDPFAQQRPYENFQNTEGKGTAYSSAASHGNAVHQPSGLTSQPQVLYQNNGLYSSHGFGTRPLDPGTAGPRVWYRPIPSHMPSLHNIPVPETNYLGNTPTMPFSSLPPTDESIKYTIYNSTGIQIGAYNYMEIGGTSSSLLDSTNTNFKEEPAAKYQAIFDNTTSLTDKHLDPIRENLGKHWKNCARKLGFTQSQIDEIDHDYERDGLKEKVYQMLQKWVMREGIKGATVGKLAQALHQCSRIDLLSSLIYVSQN

IC50 (RIPK1) [nM]	Structure (SMILES)	EC50 (HT-29 cells) [nM]
10 to 100	C[C@H](NC(=O)c1cn(C)c2ccc(-c3ccn4nc(NC(=O)N[C@@H](C)CO)nc4c3)cc12)c1cccc(F)c1 [Compound 165]	< 1
10 to 100	CC(C)C(=O)Nc1nc2cc(-c3ccc4c(c3)c(C(=O)N[C@H](C)c3cccc(Cl)c3)cn4C)ccn2n1 [Compound 126]	10 to 100
≥ 1000	C[C@H](NC(=O)c1c[nH]c2ncc(-c3ccnn3C3CCCCO3)cc12)c1cccc(F)c1 (stereo partly drawn) [Compound 75]	100 to 1000
< 1	Cn1cc(C(=O)N2CCC[C@H]2c2cc(F)cc(F)c2)c2cc(-c3ccn4nc(NC(=O)C5CC5)nc4c3)ccc21 [Compound 192]	< 1
10 to 100	Cc1ccc(CNC(=O)c2c[nH]c3ccc(-c4ccc5nc(NC(=O)C6CC6)sc5c4)cc23)cc1 [Compound 13]	1 to 10
10 to 100	C[C@H](NC(=O)c1cn(C)c2ccc(-c3ccn4nc(NC(=O)N5CCC[C@@H]5CO)nc4c3)cc12)c1cccc(F)c1 [Compound 177]	10 to 100
10 to 100	C[C@H](NC(=O)c1cn(C)c2ccc(-c3ccn4nc(NC(=O)[C@@H]5C[C@@H]5F)nc4c3)cc12)c1cccc(F)c1 [Compound 144]	< 1
≥ 1000	COc1cc(F)ccc1NC(=O)c1c[nH]c2ncc(-c3ccc4nc(NC(=O)C5CC5)sc4c3)cc12 [Compound 60]	≥ 1000
10 to 100	COc1ccc([C@H](C)NC(=O)c2c[nH]c3ccc(-c4ccc5nc(NC(=O)C6CC6)sc5c4)cc23)cc1 [Compound 33]	< 1
100 to 1000	C[C@H](NC(=O)c1c[nH]c2ccc(-c3ccc(NC(=O)C4CC4)nc3)cc12)c1cccc(F)c1 [Compound 41]	100 to 1000
1 to 10	C[C@H](NC(=O)c1cn(C)c2ccc(-c3ccc4c(C(=O)NCC(C)(C)C)c[nH]c4c3)cc12)c1cccc(F)c1 [Compound 119]	1 to 10
1 to 10	CC(C)C(=O)Nc1nc2cc(-c3cnc4c(c3)c(C(=O)N[C@@H](C)c3cccc(F)c3)cn4C)ccn2n1 [Compound 158]	< 1
10 to 100	COc1ccc([C@@H](C)NC(=O)c2c[nH]c3ccc(-c4ccc5nc(NC(=O)C6CC6)sc5c4)cc23)cc1 [Compound 32]	1 to 10
10 to 100	COc1ccc([C@H](C)NC(=O)c2cn(C)c3ccc(-c4ccn5nc(NC(=O)C(C)C)nc5c4)cc23)cc1 [Compound 133]	< 1
10 to 100	CC(C)C(=O)Nc1nc2cc(-c3ccc4c(c3)c(C(=O)N[C@H](C)c3ccccc3)cn4C)ccn2n1 [Compound 121]	1 to 10
≥ 1000	C[C@H](NC(=O)c1cn(C)c2ccc(-c3ccc(N4CCOCC4)nc3)cc12)c1cccc(F)c1 [Compound 73]	≥ 1000
100 to 1000	C[C@H](NC(=O)c1cn(C)c2ncc(-c3ccn4nc(NC(=O)C5CC5)nc4c3)cc12)c1cccc(F)c1 [Compound 186]	100 to 1000
≥ 1000	C[C@H](NC(=O)c1cn(C)c2ccc(-c3ccc(CN4CCN(C)CC4)cc3)cc12)c1cccc(F)c1 [Compound 68]	≥ 1000
1 to 10	Cn1cc(C(=O)N2CCC[C@H]2c2cccc(F)c2)c2cc(-c3ccn4nc(NC(=O)C5CC5)nc4c3)ccc21 [Compound 173]	< 1
≥ 1000	O=C(NCc1ccncc1)c1c[nH]c2ccc(-c3ccc4nc(NC(=O)C5CC5)sc4c3)cc12 [Compound 20]	≥ 1000
1 to 10	CC(C)C(=O)Nc1nc2cc(-c3ccc4c(c3)c(C(=O)N[C@@H](C)c3cccc(F)c3)cn4C)ccn2n1 [Compound 106]	< 1
10 to 100	O=C(NCc1cc(F)ccc1F)c1c[nH]c2ccc(-c3ccc4nc(NC(=O)C5CC5)sc4c3)cc12 [Compound 25]	< 1
100 to 1000	COCC(=O)Nc1nc2ccc(-c3ccc4[nH]cc(C(=O)NCc5cccc(F)c5)c4c3)cn2n1 [Compound 95]	100 to 1000
10 to 100	C[C@H](NC(=O)c1c[nH]c2ccc(-c3ccc4nc(NC(=O)C5CCCC5)sc4c3)cc12)c1cccc(F)c1 [Compound 48]	1 to 10
10 to 100	CC(C)C(=O)Nc1nc2cc(-c3ccc4c(c3)c(C(=O)N[C@@H](C)c3ccc(F)cc3)cn4C)ccn2n1 [Compound 131]	< 1
≥ 1000	C[C@H](NC(=O)c1cn(C)c2ccc(-c3cc[nH]n3)cc12)c1cccc(F)c1 [Compound 78]	100 to 1000

IC50 (RIPK1) [nM]	Structure (SMILES)	EC50 (HT-29 cells) [nM]
10 to 100	C[C@H](NC(=O)c1c[nH]c2ccc(-c3ccc4nc(NC(=O)C5CC5)sc4c3)cc12)c1ccc(F)cc1 [Compound 30]	< 1
100 to 1000	C[C@H](NC(=O)c1cn(C)c2ccc(-c3ccn4nc(NC(=O)C5CC5)nc4c3)cc12)c1ccncc1 [Compound 176]	100 to 1000
100 to 1000	[2H]C([2H])([2H])n1cc(C(=O)N[C@H](c2ccc(F)cc2)C2CC2)c2cc(-c3ccn4nc(NC(=O)CN(C)C)nc4c3)ccc21 [Compound 207]	1 to 10
100 to 1000	CC(C)c1ccc(CNC(=O)c2c[nH]c3ccc(-c4ccc5nc(NC(=O)C6CC6)sc5c4)cc23)cc1 [Compound 28]	≥ 1000
10 to 100	C[C@H](NC(=O)c1n[nH]c2ccc(-c3ccc4nc(NC(=O)C5CC5)sc4c3)cc12)c1cccc(F)c1 [Compound 59]	1 to 10
10 to 100	Nc1ncnn2c(-c3ccc4[nH]nc(C(=O)NCCc5ccc(F)cc5)c4c3)ccc12 [Compound 103]	100 to 1000
100 to 1000	O=C(NCc1ccccc1C(F)(F)F)c1c[nH]c2ccc(-c3ccc4nc(NC(=O)C5CC5)sc4c3)cc12 [Compound 24]	10 to 100
≥ 1000	COc1ccc([C@@H](C)NC(=O)c2cn(C)c3ccc(-c4ccn5nc(NC(=O)C(C)C)nc5c4)cc23)cc1 [Compound 134]	100 to 1000
≥ 1000	C[C@H](NC(=O)c1cn(C)c2ccc(-c3ccn4nc(NC(=O)N5CC(O)C5)nc4c3)cc12)c1cccc(F)c1 [Compound 172]	100 to 1000
10 to 100	CC(C)C(=O)Nc1nc2ccc(-c3ccc4c(c3)c(C(=O)N[C@@H](C)c3cccc(F)c3)cn4C)cn2n1 [Compound 107]	1 to 10
10 to 100	O=C(NCc1ccc(F)c(F)c1)c1c[nH]c2ccc(-c3ccc4nc(NC(=O)C5CC5)sc4c3)cc12 [Compound 2]	100 to 1000
≥ 1000	C[C@H](NC(=O)c1cn(C)c2ccc(-c3ccc(N4CCOCC4)cc3)cc12)c1cccc(F)c1 [Compound 72]	≥ 1000
1 to 10	C[C@H](NC(=O)c1cn(C)c2ccc(-c3ccn4nc(NC(=O)[C@@H]5CCCN5)nc4c3)cc12)c1cccc(F)c1 [Compound 180]	< 1
100 to 1000	O=C(NCc1cc(C(F)(F)F)cc(C(F)(F)F)c1)c1c[nH]c2ccc(-c3ccc4nc(NC(=O)C5CC5)sc4c3)cc12 [Compound 5]	≥ 1000
10 to 100	CC(C)C(=O)Nc1nc2cc(-c3ccc4c(c3)c(C(=O)NC(C)c3ccccn3)cn4C)ccn2n1 (stereo not drawn) [Compound 135]	1 to 10
100 to 1000	O=C(NCc1cccc(Br)c1)c1c[nH]c2ccc(-c3ccc4nc(NC(=O)C5CC5)sc4c3)cc12 [Compound 23]	1 to 10
1 to 10	Cn1cc(C(=O)N2CCCC2c2cc(F)ccc2F)c2cc(-c3ccn4nc(NC(=O)C5CC5)nc4c3)ccc21 (stereo not drawn) [Compound 190]	1 to 10
10 to 100	O=C(NCc1cccc(Cl)c1)c1c[nH]c2ccc(-c3ccc4nc(NC(=O)C5CC5)sc4c3)cc12 [Compound 22]	1 to 10
≥ 1000	Cn1cc(C(=O)NCc2ccc(N3CCOCC3)cc2)c2cc(-c3ccc4nc(NC(=O)C5CC5)sc4n3)ccc21 [Compound 100]	≥ 1000
100 to 1000	C[C@H](NC(=O)c1c[nH]c2ccc(-c3ccc4nc(NC(=O)C5CC5)ncc4c3)cc12)c1cccc(F)c1 [Compound 44]	10 to 100
100 to 1000	COc1ccc(CNC(=O)c2c[nH]c3ncc(-c4ccc5nc(NC(=O)C6CC6)sc5c4)cc23)cc1OC [Compound 64]	10 to 100
≥ 1000	CC(C)C(=O)Nc1nc2cc(-c3ccc4c(c3)c(C(=O)NC(C)c3cccnc3)cn4C)ccn2n1 (stereo not drawn) [Compound 138]	≥ 1000
100 to 1000	COc1cccc(CNC(=O)c2c[nH]c3ccc(-c4ccc5nc(NC(=O)C6CC6)sc5c4)cc23)c1 [Compound 12]	≥ 1000
100 to 1000	C[C@H](NC(=O)c1c[nH]c2ncc(-c3ccc(C(=O)N4CCOCC4)cc3)cc12)c1cccc(F)c1 [Compound 74]	100 to 1000
10 to 100	COc1cccc([C@H](C)NC(=O)c2c[nH]c3ccc(-c4ccc5nc(NC(=O)C6CC6)sc5c4)cc23)c1 [Compound 38]	1 to 10
100 to 1000	COc1cc(CNC(=O)c2c[nH]c3ccc(-c4ccc5nc(NC(=O)C6CC6)sc5c4)cc23)cc(OC)c1 [Compound 11]	≥ 1000

Structure (SMILES)	IC50 (RIPK1) [nM]	EC50 (HT-29 cells) [nM]
CCn1cc(C(=O)N2CCC[C@H]2c2ccc(F)cc2)c2cc(-c3ccn4nc(NC(=O)CN(C)C)nc4c3)ccc21 [Compound 201]	10 to 100	1 to 10
CC(C)Cn1cc(C(=O)N[C@@H](C)c2cccc(F)c2)c2cc(-c3ccn4nc(NC(=O)C(C)C)nc4c3)ccc21 [Compound 153]	100 to 1000	100 to 1000
CC[C@H](NC(=O)c1cn(CC)c2ccc(-c3ccn4nc(NC(=O)CN(C)C)nc4c3)cc12)c1ccc(F)cc1 [Compound 211]	1 to 10	< 1
COCCn1cc(C(=O)N[C@@H](C)c2cccc(F)c2)c2cc(-c3ccn4nc(NC(=O)C5CC5)nc4c3)ccc21 [Compound 154]	10 to 100	1 to 10
CCn1cc(C(=O)N2CCC[C@H]2c2ccc(F)cc2)c2cc(-c3ccn4nc(NC(=O)[C@H](C)OC(C)=O)nc4c3)ccc21 [Compound 198]	10 to 100	1 to 10
